Data from paper PMC5988692, “AZ304, a novel dual BRAF inhibitor, exerts anti-tumour effects in colorectal cancer independently of BRAF genetic status” (British Journal of Cancer, 2018).
Where two headings read alike, the source gives them in different places.

What was measured:
RKO cells = experiment: MTT proliferation assay; assay type: cell-based; conditions: Homo sapiens, BRAF MT (V600E), KRAS WT
Description: (§1) The proliferation assays in selected colorectal cancer cell lines were measured using a 3-(4,5-dimethyl thiazol-2-yl)-2,5-diphenyl tetrazolium bromide (MTT) assay. First of all, cultured cells were seeded into 96-well plates (2000–5000 cells per well). After incubation for 24 h, the cells were pretreated with DMSO or AZ304 for 1 h. […] Cells were incubated for a further 48 or 72 h. For EGF stimulating assay, cells were incubated in reduced serum medium overnight and then treated with AZ304 or AZ304 + EGF (20 ng/ml) for 72 h. Twenty microliter of MTT solution (5 mg/ml) was added to each well followed by 4 h incubation at 37 °C. The cell culture medium was removed and the cells were lysed in 200 μl dimethylsulphoxide (DMSO) and the results were measured using a microplate reader (Model 550, Bio-Rad Laboratories, Hercules, CA, USA).

DiFi cells = experiment: MTT proliferation assay; assay type: cell-based; conditions: Homo sapiens, BRAF WT, KRAS WT
Description: as §1

HT-29 cells = experiment: MTT proliferation assay; assay type: cell-based; conditions: Homo sapiens, HT-29, BRAF MT (V600E), KRAS WT
Description: as §1

Caco-2 cells = experiment: MTT proliferation assay; assay type: cell-based; conditions: Homo sapiens, Caco-2, BRAF WT, KRAS WT
Description: as §1

[1] = test system: RKO, HT-29, DiFi and Caco-2 cells; experiment: EdU incorporation assay; assay type: cell-based, human; conditions: four CRC cell lines, 24 h
Description: Selected colorectal cancer cells were seeded into 96-well plates (2000–5000 cells per well). After incubation for 24 h, the cells were pretreated with DMSO or AZ304 for 24 h. Then 50 μM of 5-ethynyl-2′-deoxyuridine (EdU, Ribobio, Guangzhou, China) was added to each well and the cells were incubated at 37 °C for 2 h before being fixed with 4% formaldehyde for 30 min and incubated with 2 mg/ml glycine for 5 min. After being washed with PBS for five times, the cells were reacted with 100 μL of 1 × Apollo reaction cocktail for 30 min. Afterwards, the 1 × Hoechst 33342 (5 μg/mL) was used to stain the nuclei.
Two V600E mutant BRAF cell lines (RKO, HT-29) and two wild-type BRAF cell lines (DiFi, Caco-2) were treated with DMSO or increasing concentrations of AZ304 (0, 0.1, 1, 10, 100 μM), for 48 h (a) and 72 h (b). Viable cells were determined by MTT assay. c EdU incorporation assay. Four cells lines from (a) were treated with DMSO or indicated AZ304 for 24 h, followed by incubation with EdU and Hoechst in sequence. […] Expression levels of phosphorylation ERK were analysed by Western blot. e BRAF mutant cell line RKO, and BRAF wild type cell line Caco-2 were treated with DMSO or 2 uM AZ304 for the indicated times. Expression levels of phosphorylation ERK were analysed by Western blot. […] Cell viability was determined by MTT assay

RKO xenografts = experiment: Xenograft study (tumour growth, immunohistochemistry); assay type: in vivo, athymic BALB/c nude mice
Description: (§2) All in vivo experiments were performed in accordance with Institutional Review Board of China Medical University guidelines. Female 4–6 weeks old athymic BALB/c nude mice were purchased from Shanghai SLAC Laboratory Animal Centre (Shanghai, China). RKO/Caco-2 cells (1 × 10^7) in 200 μl PBS were injected subcutaneously into the right scapular region of mice. […] Tumours were measured with a caliper every 2 days, so did body weights. Tumour volume was calculated using the formula V = 1/2 (width^2 × length). Mice were terminated by CO2 inhalation when the tumour diameters reached 1.5 cm, according to the protocol filed with the Guidance of Institutional Animal Care and Use Committee of China Medical University.
(§3) Tumours were formalin-fixed, paraffin-embedded and prepared as described in our previous study for staining with haematoxylin and eosin.[19] […] The staining was evaluated by scanning the entire tissue specimen under low magnification (×10) and confirmed under high magnification (×20 and ×40). The protein expression was visualised and classified based on the percentage of positive cells and the intensity of staining. From each section, five visual fields were randomly selected. The degree of protein expression was based on the percentage of positive cells and the intensity of staining. Staining intensity was scored as 0 (no staining), 1 (low staining), 2 (intermediate staining), and 3 (high staining). For the staining area, ≤5%, 5–25%, 26–50, 51–75% >75% were recorded as 0, 1, 2, 3 and 4 points, respectively. Histological score = staining intensity × staining area. A score 0 was classified as negative (−), 1–4 points as weakly positive (+), 6–12 points as a strong positive (++). Final scores were assigned by two independent pathologists.
(§4) Student’s t-tests were used for statistical analyses. Data are plotted as mean ± SD. […] Tumours were harvested 4 h after dosing on day 10

Caco-2 xenografts = experiment: as above; assay type: in vivo, athymic BALB/c nude mice
Description: as §2, §3, §4

[2] = 48 h, read-out: GI50 (μM) of AZ304 48 h
[3] = 72 h, read-out: GI50 (μM) of AZ304 72 h
[4] = RKO xenograft tumours, day 10, 4 h after dosing, score = staining intensity × staining area
[5] = Caco-2 xenograft tumours, day 10, 4 h after dosing, score = staining intensity × staining area

Molecule `COc1ccc2c(Nc3cc(NC(=O)c4cccc(C(C)(C)C#N)c4)ccc3C)ncnc2c1` [AZ304] has a GI50 (RKO cells; [2]) of 4.54 µM, a GI50 (RKO cells; [3]) of 0.503 µM and a GI50 (DiFi cells; [2]) of 4.99 µM. It also gave a GI50 (DiFi cells; [3]) of 0.635 µM, a GI50 (HT-29 cells; [2]) of 3.9 µM and a GI50 (HT-29 cells; [3]) of 0.389 µM. The GI50 (Caco-2 cells; [2]) was 1.76 µM, the GI50 (Caco-2 cells; [3]) was 0.377 µM and the “DNA replication (EdU-positive cells)” value [1] was “suppressed DNA replication in CRC cells at all concentrations”. The Ki67 histological score (RKO xenografts; [4]) was 4.8 ±1.10, the p-AKT histological score (RKO xenografts; [4]) was 4.2 ±2.28 and the p-EGFR histological score (RKO xenografts; [4]) was 10 ±1.87. The p-ERK histological score (RKO xenografts; [4]) was 3.2 ±1.10, the tumour growth (RKO xenografts; RKO xenograft, AZ304 10 mg/kg oral twice daily, Cetuximab 40 mg/kg i.p. twice per week, 10 days, vs vehicle) was “reduced tumour growth” and the Ki67 histological score (Caco-2 xenografts; [5]) was 3.2 ±0.84. It also gave a p-AKT histological score (Caco-2 xenografts; [5]) of 6.8 ±1.10, a p-EGFR histological score (Caco-2 xenografts; [5]) of 10.6 ±1.95 and a p-ERK histological score (Caco-2 xenografts; [5]) of 4.8 ±1.10. For the same molecule, the tumour growth (Caco-2 xenografts; Caco-2 xenograft, AZ304 10 mg/kg oral twice daily, Cetuximab 40 mg/kg i.p. twice per week, 10 days, vs vehicle) was “reduced tumour growth”.
